Assay results published in patent publication EP1808169B1, “Polyhydroxylated aromatic compounds for the treatment of amyloidosis and alpha-synuclein fibril diseases” (priority 1999, dated 2001).

Experiments:
Assay type in all cases: biochemical
[1] = system: Aβ 1-40 amyloid fibrils; assay: Modified Congo red-Aβ spectrophotometric assay: disaggregation of pre-formed Aβ 1-40 fibrils (3 days incubation); conditions: Aβ:compound weight ratio 2:1; fibrillized Aβ 1-40 incubated with compound 3 days at 37°C in TBS pH 7.0; Δ absorbance at 540 nm; triplicate
Method: In this study, a Congo red-Aβ spectrophotometric assay (Klunk et al., Anal. Biochem. 266:66-76, 1999) was modified to determine the effectiveness of polyhydroxylated aromatic compounds on the disaggregation of pre-formed Aβ 1-40 amyloid fibrils. For this assay, 1 mg of Aβ 1-40 (Bachem) was incubated for 4 days in distilled water at 37°C to spontaneously produce amyloid fibrils. 25pM of fibrillized Aβ 1-40 was then incubated in triplicate with various test compounds for 3 days at 37°C in Tris-buffered saline (TBS)(100 mM Tris; 50 mM NaCl; pH 7.0, with 0.02% sodium azide), at an Aβ:compound weight ratio of 2:1. Following incubation, 50µl of 360 µM Congo red (Sigma) in distilled water was then added to 250 µl of each incubation mixture, giving a final Aβ:Congo red molar ratio of 1:3. After 10 minutes, the absorbance at 405 nm (reference wavelength to account for the absorbance of Congo red alone at 540 nm) and 540 nm (sample absorbance where "sample" refers to Aβ alone, test compound alone, or Aβ plus test compound, all in the presence of Congo red) was determined using a Biorad Model 550 BLISA Plate Reader (Biorad, Hercules, CA, USA). The absorbance at wavelength 405 nm was automatically subtracted by the ELISA plate reader from the absorbance at wavelength 540 nm (difference is referred to as Δ absorbance)(see Klunk et al. cited above). Therefore, the Δ absorbance reading at 540 nm was proportional to the amount of aggregated Aβ left in solution (Klunk et al.).
For all experiments involving test compounds, the Δ absorbance reading at 540 nm of the test compound alone (in the absence of Aβ), was always subtracted from the corresponding Δ absorbance reading at 540 nm of the test compound in the presence of Aβ. Using this modification of the method of Klunk et al., the use of a greater final concentration of Congo red, i.e. 60µM instead of 14µM, in the presence of fibrillar Aβ gave an overall absorbance at 540 nm that was always below 1.0 Absorbance Unit (AU), and well within the linear absorbance range.
The following polyhydroxylated aromatic containing compounds were tested using the above described Congo red-Aβ spectrophotometric assay to determine their effectiveness on disaggregation of pre-formed Aβ 1-40 amyloid fibrils: 1) gallic acid, 2) ethyl gallate, 3) quinic acid, 4) gallamide trihydrate, 5) ellagic acid, 6) propyl gallate, and 7) pyrogallol.

[2] = system: Aβ 1-42 amyloid fibrils; assay: Thioflavin T fluorometry: disassembly/disruption of pre-formed Aβ 1-42 amyloid fibrils; conditions: overnight (~18 hours) at 37°C, pH 7.0, mean of triplicate ± standard deviation
Method: For the first study, 1 mg of Aβ 1-42 (Bachem Inc., Torrance, CA, USA) was dissolved in 1.0 ml of double distilled water (1 mg/ml solution). 25 µM of Aβ 1-42 was then incubated overnight (~18 hours) at 37°C, in the absence or presence of 100µg/ml of the following compounds: 1) EDTA (Sigma Chemical Company, St. Louis, MO, USA), 2) myricetin (Acros, Somerville, New Jersey, USA), 3) exifone (Acros) 4) pyrogallol (Sigma), 5) tannic acid (Acros), 6) pyrocatechol (Acros), 7) quercetin (Sigma), 8) ellagic acid (Acros), 9) 1,2,4-benzenetriol (Acros), 10) 5-hydroxydopamine (Acros), 11) gallamide hydrate (Acros), 12) gallic acid (Sigma), 13) ethyl gallate (Acros), 14) quinic acid (Acros), 15) propyl gallate (Sigma), and 16) phloroglucide (Acros), each in the presence of 150 mM Tris HCl, 10 mM NaCl (pH 7.0) with 0.02% sodium azide. In this study, the Aβ 1-42:compound weight ratio was 1:1.
For the second study, 1 mg of Aβ 1-42 (Bachem) was dissolved in 1.0 ml of double distilled water (1 mg/ml solution). 25 µM of Aβ 1-42 was then incubated overnight (~18 hours) at 37°C, in the absence or presence of 50µg/ml of the following compounds: 1) gallic acid, 2) ethyl gallate, 3) quinic acid, 4) gallamide trihydrate, 5) ellagic acid, 6) propyl gallate, and 7) pyrogallol, each in the presence of 150 mM Tris HCl, 10 mM NaCl (pH 7.0) with 0.02% sodium azide. In this study, the Aβ 1-42:compound weight ratio was 2:1.
Thioflavin T is known to bind to fibrillar amyloid proteins, and an increase in fluorescence correlates with an increase in amyloid fibril formation, whereas a decrease in fluorescence correlates with a decrease in amyloid fibrils due to disassembly and/or disruption. The Alzheimer's Aβ protein (1-42) when placed in solution, such as distilled water, tends to spontaneously form amyloid fibrils. Using this sensitive assay, any decreases or increases in fluorescence was previously shown to correlate with a decrease or increase in the amount of amyloid fibrils (see the documents cited above), allowing one to identify and quantitate the extent of potential inhibitors and/or enhancers of Alzheimer's Aβ 1-42 amyloid fibrils.
To assess the effects of each compound on potential disassembly/ disruption of preformed Aβ 1-42 fibrils, 50 µl of Aβ 1-42 with or without test compounds (described above) were added to 1.2 ml of 100µM Thioflavin T (Sigma) in 50mM NaH2PO4 (pH 6.0) for fluorometry readings. […] Fluorescence emission at 482 nm was measured on a Turner instrument-model 450 fluorometer at an excitation wavelength of 450 nm. For each determination, the fluorometer was calibrated by zeroing in the presence of the Thioflavin T reagent alone, and by setting the 50 ng/ml riboflavin (Sigma Chemical Co., St. Louis, MO) in the Thioflavin T reagent to 1800 fluorescence units. All fluorescence determinations were based on these references and any fluorescence given off by any of the compounds in the presence of the Thioflavin T reagent was always subtracted from all pertinent readings.
For all fibrillogenesis studies utilizing Thioflavin T fluorometry, as disclosed herein, comparisons of amyloid protein in the presence or absence of test compounds were based on paired Student's t tests with data shown as the mean of triplicate measurements ± standard deviation.

[3] = target: T1, human amylin (Homo sapiens, UniProt P10997); assay: Thioflavin T fluorometry: disassembly/disruption of islet amyloid (amylin) fibrils; conditions: 25 µM human amylin, 100µg/ml compound, amylin:compound weight ratio 1:1, overnight (~18 hours) at 37°C, pH 7.0; read-out: Fluorescence inhibition, %
T1 construct: This amyloid protein involved consists of a 37 amino acid protein known as islet amyloid polypeptide or amylin; purchased Bachem
T1 sequence (P10997 34-70 limits assumed): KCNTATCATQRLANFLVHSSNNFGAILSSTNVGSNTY

[4] = target: T1, human amylin; assay: Congo red staining of amylin fibrils on gelatin-coated slides (polarized light); conditions: result in words; amylin + compound after overnight incubation, compared with amylin alone
Method: Following Thioflavin T fluorometry readings as described in Example 1, 5µl aliquots of amylin only, amylin + myricetin, amylin + exifone, and amylin + tannic acid were also taken, allowed to air dry overnight on gelatin-coated slides, and stained with Congo red as previously described (Castillo et al., Diabetes 47:612-620, 1998).

| SMILES | Decrease in absorbance, % [1] | Fluorescence inhibition, %, at the Aβ 1-42:compound w/w ratios given ([2]; Aβ 1-42:compound w/w ratio 2:1, 25 µM Aβ 1-42, 50µg/ml compound) | inhibition at 100 µg/mL [3] | Congo red staining [4] | Fluorescence inhibition, %, at the Aβ 1-42:compound w/w ratios given ([2]; Aβ 1-42:compound w/w ratio 1:1, 25 µM Aβ 1-42, 100µg/ml compound) |
| --- | --- | --- | --- | --- | --- |
| O=C(O)c1cc(O)c(O)c(O)c1 [Gallic acid, gallic acid] | 52 ± 0.4% | 44 ± 1.7% | – | – | – |
| O=C(OC[C@H]1O[C@@H](OC(=O)c2cc(O)c(O)c(OC(=O)c3cc(O)c(O)c(O)c3)c2)[C@H](OC(=O)c2cc(O)c(O)c(OC(=O)c3cc(O)c(O)c(O)c3)c2)[C@@H](OC(=O)c2cc(O)c(O)c(OC(=O)c3cc(O)c(O)c(O)c3)c2)[C@@H]1OC(=O)c1cc(O)c(O)c(OC(=O)c2cc(O)c(O)c(O)c2)c1)c1cc(O)c(O)c(OC(=O)c2cc(O)c(O)c(O)c2)c1 [Tannic acid, tannic acid] | – | – | 83.8 ± 1.4% | marked decrease in Congo red staining | 77 ± 1.3% |
